24 compounds from US11136312B2, “3,4,5-trisubstituted-1,2,4-triazoles and 3,4,5-trisubstituted-3-thio-1,2,4-triazoles and uses thereof” (Board of Trustees of Southern Illinois University, priority 2017, dated 2021) can be followed below.

Test in all cases: Competitive radioligand binding, 125I-Tyr-SRIF 14, membrane preparations
Assay [1] deals with human somatostatin receptor SSTR2A (Homo sapiens (Human), UniProt P30874). The note with it: competitive binding vs 125I-Tyr-SRIF 14, human SSTR2A membranes; read-out: SST2. The protocol: (§1) Respective membrane receptor preparations were prepared in assay buffer (25 mM HEPES, 10 mM MgCl2, 1 mM CaCl2, 0.5% BSA, pH=7.4) at a 1:150 dilution. […] Binding assays were performed in triplicate for each concentration of ligand in a total volume of 200 μL radioligand (25 μL ligand, 25 μL radioligand, 150 μL receptors) and incubated at room temperature for 90 minutes using a shaking table. Binding was terminated by filtration through GF/B glass fiber filters that were presoaked in 0.5% polyethyleneimine for a minimum of 4 hours. Filters were washed 9× with 1000 μL ice cold wash buffer (50 mM Tris-HCl, pH=7.4, 0.2% BSA). Filters were scored, transferred into plastic test tubes and counted in a gamma counter (Wizard2, Perkin-Elmer). Determination of the Ki for each compound was performed using non-linear regression with GraphPad PRISM-5 software (GraphPad Software, Inc., La Jolla, Calif.).

Assay [2] addresses human somatostatin receptor SSTR5 (Homo sapiens (Human), UniProt P35346). Conditions: competitive binding vs 125I-Tyr-SRIF 14, human SSTR5 membranes; read-out: SST5. The protocol:
as §1

For assay [3], the target named is human somatostatin receptor SSTR1 (Homo sapiens (Human), UniProt P30872). The note with it: competitive binding vs 125I-Tyr-SRIF 14, human SSTR1 membranes; read-out: SST1. The protocol:
as §1

Assay [4] concerns the target human somatostatin receptor SSTR3 (Homo sapiens (Human), UniProt P32745). The note with it: competitive binding vs 125I-Tyr-SRIF 14, human SSTR3 membranes; read-out: SST3. The protocol: Competitive radioligand binding experiments were performed using MEMBRANE TARGET Systems (Perkin-Elmer, Boston, Mass.) for human somatostatin receptors: SSTR1 (ES-520-M400UA), SSTR2A (ES-521-M400UA), SSTR3 (ES523-M400UA), SSTR4 (ES-524-M400UA) and SSTR5 (ES-522-M400UA) receptors. (See Table 1). Respective membrane receptor preparations were prepared in assay buffer (25 mM HEPES, 10 mM MgCl2, 1 mM CaCl2, 0.5% BSA, pH=7.4) at a 1:150 dilution. Binding assays were performed using 1251-Tyr-SRIF 14 (Perkin-Elmer, NEX 3890) dissolved in 1 mM HCl. Binding assays were performed in triplicate for each concentration of ligand in a total volume of 200 μL radioligand (25 μL ligand, 25 μL radioligand, 150 μL receptors) and incubated at room temperature for 90 minutes using a shaking table. Binding was terminated by filtration through GF/B glass fiber filters that were presoaked in 0.5% polyethyleneimine for a minimum of 4 hours. Filters were washed 9× with 1000 μL ice cold wash buffer (50 mM Tris-HCl, pH=7.4, 0.2% BSA). Filters were scored, transferred into plastic test tubes and counted in a gamma counter (Wizard2, Perkin-Elmer). Determination of the Ki for each compound was performed using non-linear regression with GraphPad PRISM-5 software (GraphPad Software, Inc., La Jolla, Calif.).

human somatostatin receptor SSTR2A, sequence (P30874 whole entry): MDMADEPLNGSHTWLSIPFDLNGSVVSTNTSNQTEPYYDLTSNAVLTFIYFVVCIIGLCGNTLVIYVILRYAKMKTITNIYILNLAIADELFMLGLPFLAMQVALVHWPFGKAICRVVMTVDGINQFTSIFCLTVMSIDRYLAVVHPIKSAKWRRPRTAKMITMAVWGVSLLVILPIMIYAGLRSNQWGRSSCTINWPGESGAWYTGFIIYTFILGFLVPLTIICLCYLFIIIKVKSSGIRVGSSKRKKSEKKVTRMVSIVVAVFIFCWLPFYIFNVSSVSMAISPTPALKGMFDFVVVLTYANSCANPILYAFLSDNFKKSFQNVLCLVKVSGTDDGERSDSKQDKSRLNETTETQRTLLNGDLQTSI

On to `O=[N+]([O-])c1cccc(Cc2nnc(CCc3c[nH]c4ccccc34)n2CCCc2c[nH]cn2)c1` [MM-I-43, 3-(2-(4-(3-(1H-Imidazol-4-yl)propyl)-5-(3-nitrobenzyl)-4H-1,2,4-triazol-3-yl)ethyl)-1H-indole], for which the Ki in assay [1] was greater than 10 µM. Take `COc1ccc(Cc2nnc(Cc3c[nH]c4ccccc34)n2CCCc2c[nH]cn2)cc1` [SK-I-23, 3-((4-(3-(1H-imidazol-4-yl)propyl)-5-(4-methoxybenzyl)-4H-1,2,4-triazol-3-yl)methyl)-1H-indole]: the Ki in assay [2] is greater than 10 µM; in assay [3] it was 2.58 µM; in assay [1], greater than 10 µM; in assay [4], greater than 10 µM.

On to `Clc1ccc(Cc2nnc(CCc3c[nH]c4ccccc34)n2CCCc2c[nH]cn2)cc1` [BN-VI-62, 3-(2-(4-(3-(1H-Imidazol-4-yl)propyl)-5-(4-chlorobenzyl)-4H-1,2,4-triazol-3-yl)ethyl)-1H-indole], for which the Ki in assay [1] is greater than 10 µM. For the compound `Brc1cccc(Cc2nnc(CCc3c[nH]c4ccccc34)n2CCCc2c[nH]cn2)c1` [SM-I-50, 3-(2-(4-(3-(1H-Imidazol-4-yl)propyl)-5-(3-bromobenzyl)-4H-1,2,4-triazol-3-yl)ethyl)-1H-indole], the Ki in assay [2] was greater than 10 µM; in assay [3], 4.74 µM; in assay [1], greater than 10 µM; in assay [4] it was greater than 10 µM. Regarding `Clc1ccc(Cc2nnc(Cc3c[nH]c4ccccc34)n2CCCc2c[nH]cn2)cc1` [SK-I-22, 3-((4-(3-(1H-imidazol-4-yl)propyl)-5-(4-chlorobenzyl)-4H-1,2,4-triazol-3-yl)methyl)-1H-indole], the Ki in assay [1] worked out at 7.69 µM. With `FC(F)(F)Oc1cccc(Cc2nnc(CCc3c[nH]c4ccccc34)n2CCCc2c[nH]cn2)c1` [MM-I-36, 3-(2-(4-(3-(1H-imidazol-4-yl)propyl)-5-(3-(trifluoromethoxy)benzyl)-4H-1,2,4-triazol-3-yl)ethyl)-1H-indole], the results for the Ki in assay [3] and in assay [1] were 4.08 µM and greater than 10 µM, respectively.

Turning to `CS(=O)(=O)c1cccc(Cc2nnc(CCc3c[nH]c4ccccc34)n2CCCc2c[nH]cn2)c1` [SM-I-92, 3-(2-(4-(3-(1H-imidazol-4-yl)propyl)-5-(3-(methylsulfonyl)benzyl)-4H-1,2,4-triazol-3-yl)ethyl)-1H-indole], in assay [1], the Ki is greater than 10 µM. Consider `Fc1ccc2c(Cc3nnc(Cc4cccc(C(F)(F)F)c4)n3CCCc3c[nH]cn3)c[nH]c2c1` [MM-I-87, 3-((4-(3-(1H-imidazol-4-yl)propyl)-5-(3-(trifluoromethyl)benzyl)-4H-1,2,4-triazol-3-yl)methyl)-6-fluoro-1H-indole], for which the Ki in assay [1] came to 3.28 µM. On to `CS(=O)(=O)c1cccc(Cc2nnc(Cc3c[nH]c4ccccc34)n2CCCc2c[nH]cn2)c1` [MM-I-72, 3-((4-(3-(1H-imidazol-4-yl)propyl)-5-(3-(methylsulfonyl)benzyl)-4H-1,2,4-triazol-3-yl)methyl)-1H-indole], for which the Ki in assay [3] was 0.661 µM; in assay [1], greater than 10 µM. Turning to `Fc1ccc2c(Cc3nnc(Cc4ccccc4)n3CCCc3c[nH]cn3)c[nH]c2c1` [MM-I-89, 3-((4-(3-(1H-imidazol-4-yl)propyl)-5-benzyl-4H-1,2,4-triazol-3-yl)methyl)-6-fluoro-1H-indole], the Ki in assay [1] was greater than 10 µM. The same measure, in the same setting: then `Fc1ccc2c(Cc3nnc(Cc4cccc(Br)c4)n3CCCc3c[nH]cn3)c[nH]c2c1` [MM-I-83, 3-((4-(3-(1H-imidazol-4-yl)propyl)-5-(3-bromobenzyl)-4H-1,2,4-triazol-3-yl)methyl)-6-fluoro-1H-indole], with 2.08 µM; and `c1ccc(COc2cccc(Cc3nnc(CCc4c[nH]c5ccccc45)n3CCCc3c[nH]cn3)c2)cc1` [MM-I-53, 3-(2-(4-(3-(1H-imidazol-4-yl)propyl)-5-(3-(benzyloxy)benzyl)-4H-1,2,4-triazol-3-yl)-ethyl)-1H-indole], with greater than 10 µM. In the case of `Fc1ccc2c(Cc3nnc(Cc4c[nH]c5cc(F)ccc45)n3CCCc3c[nH]cn3)c[nH]c2c1` [SK-I-124, 3,3′-((4-(3-(1H-imidazol-4-yl)propyl)-4H-1,2,4-triazol-3,5-diyl)bis(methylene))bis(6-fluoro-1H-indole)], the Ki in assay [2] was greater than 10 µM; in assay [3] it was 0.0978 µM; in assay [1], 0.64 µM; in assay [4], 1.74 µM. The like results for `Clc1cccc(Cc2nnc(CCc3c[nH]c4ccccc34)n2CCCc2c[nH]cn2)c1` [BN-VI-56, 3-(2-(4-(3-(1H-Imidazol-4-yl)propyl)-5-(3-chlorobenzyl)-4H-1,2,4-triazol-3-yl)ethyl)-1H-indole] were, in that order, greater than 10 µM, 6.93 µM, greater than 10 µM and greater than 10 µM. The like results for `Fc1cccc(Cc2nnc(CCc3c[nH]c4ccccc34)n2CCCc2c[nH]cn2)c1` [SM-I-38, 3-(2-(4-(3-(1H-Imidazol-4-yl)propyl)-5-(3-fluorobenzyl)-4H-1,2,4-triazol-3-yl)ethyl)-1H-indole] were, in that order, greater than 10 µM, greater than 10 µM, greater than 10 µM and greater than 10 µM. For `COc1ccccc1Cc1nnc(CCc2c[nH]c3ccccc23)n1CCCc1c[nH]cn1` [MM-I-21, 3-(2-(4-(3-(1H-Imidazol-4-yl)propyl)-5-(2-methoxybenzyl)-4H-1,2,4-triazol-3-yl)ethyl)-1H-indole], in that order: greater than 10 µM, greater than 10 µM, greater than 10 µM and greater than 10 µM.

Regarding `Cn1cc(CCc2nnc(Cc3cccc(C(F)(F)F)c3)n2CCCc2c[nH]cn2)c2ccccc21` [SM-I-76, 3-(2-(4-(3-(1H-imidazol-4-yl)propyl)-5-(3-(trifluoromethyl)benzyl)-4H-1,2,4-triazol-3-yl)ethyl)-1-methyl-1H-indole], the Ki in assay [1] is greater than 10 µM. On the same count and under the same terms, then `Fc1ccc(Cc2nnc(Cc3c[nH]c4ccccc34)n2CCCc2c[nH]cn2)cc1` [SK-I-16, 3-((4-(3-(1H-imidazol-4-yl)propyl)-5-(4-fluorobenzyl)-4H-1,2,4-triazol-3-yl)methyl)-1H-indole], with greater than 10 µM.

For `c1ccc(CSc2nnc(-c3c[nH]c4ccccc34)n2CCCc2c[nH]cn2)cc1` [AH-1-86, 3-(4-(3-(1H-imidazol-4-yl)propyl)-5-(benzylthio)-4H-1,2,4-triazol-3-yl)-1H-indole], the Ki in assay [2] and in assay [3] was greater than 10 µM throughout. For `N#Cc1cccc(Cc2nnc(CCc3c[nH]c4ccccc34)n2CCCc2c[nH]cn2)c1` [MM-I-63, 3-((4-(3-(1H-imidazol-4-yl)propyl)-5-(2-(1H-indol-3-yl)ethyl)-4H-1,2,4-triazol-3-yl)methyl)benzonitrile], the Ki in assay [1] was greater than 10 µM.

For `Clc1cc(Cl)cc(Cc2nnc(CCc3c[nH]c4ccccc34)n2CCCc2c[nH]cn2)c1` [BN-VI-89, 3-(2-(4-(3-(1H-Imidazol-4-yl)propyl)-5-(3,5-dichlorobenzyl)-4H-1,2,4-triazol-3-yl)ethyl)-1H-indole], the Ki in assay [1] turned out to be 6.98 µM. Same read-out and setting: for `N[C@H](Cc1c[nH]c2ccccc12)c1nnc(Cc2cccc(Cl)c2)n1CCCc1c[nH]cn1` [BN-VI-87, (R)-1-(4-(3-(1H-Imidazol-4-yl)propyl)-5-(3-chlorobenzyl)-4H-1,2,4-triazol-3-yl)-2-(1H-indol-3-yl)ethanamine] the value was greater than 10 µM; for `COc1ccc(Cc2nnc(CCc3c[nH]c4ccccc34)n2CCCc2c[nH]cn2)cc1` [SM-I-29, 3-(2-(4-(3-(1H-Imidazol-4-yl)propyl)-5-(4-methoxybenzyl)-4H-1,2,4-triazol-3-yl)ethyl)-1H-indole], greater than 10 µM; for `c1ccc(-c2ccc(Cc3nnc(CCc4c[nH]c5ccccc45)n3CCCc3c[nH]cn3)cc2)cc1` [MM-I-26, 3-(2-(4-(3-(1H-Imidazol-4-yl)propyl)-5-([1,1′-biphenyl]-4-ylmethyl)-4H-1,2,4-triazol-3-yl)ethyl)-1H-indole], greater than 10 µM.
